How the values were obtained:
Type in all cases: cell-based, murine
BaF3-BCR/ABL = target: T1, BaF3-BCR/ABL (Homo sapiens, UniProt P00519); assay: Antiproliferative activity, kinase-dependent Ba/F3 cells (MTT/MTS); conditions: 48 hours, cell viability, read-out: BCR/ABL IC50
T1 construct: fused on or other part: P11274 (Breakpoint cluster region protein)
Procedure: (§1) Following up on the kinome data, the ability of compounds disclosed in the present invention to inhibit proliferation of cells that are dependent on selected protein kinases was tested. […] In addition, compounds were assayed to measure their capacity to inhibit TIE1, LYN, EML4-ALK, INSR and HCK kinases.
(§2) The murine cell line used is the BaF/3 cell line transformed with BCR/ABL cDNA (BaF/3-p210) or BCR/ABL-T315I mutant (Ba/F3-p210-T315I). These cells are maintained in RPMI/10% fetal calf serum (RPMI/FCS) supplemented with penicillin 50 μg/mL, streptomycin 50 μg/mL and L-glutamine […]. Untransformed BaF/3 cells (Wt-BaF/3) are similarly maintained with the addition of 15% of WEHI conditioned medium as a source of IL3.
(§3) Cells were seeded at a density of 20,000 cells/well into 96-well plates.
(§4) The background control wells to which media with no cells added and the vehicle control wells were included on each plate in triplicate. Cell viability was determined using MTT (Sigma, St. Louis, Mo., USA) and MTS (Promega, Madison, Wis., USA), according to the manufacturer's instructions. Results were analyzed using GraphPad Prism 5.0 (GraphPad Software, San Diego, Calif.) and IC50 values were calculated from cell viability dose-response curves and defined as the concentration of compound needed to reduce cell viability to 50% of a vehicle control (DMSO) (Table 3).

BaF3-BCR/ABL-T315I = target: T2, BaF3-BCR/ABL-T315I (Homo sapiens, UniProt P00519, T315I, cells depend on it); assay: as above; conditions: 48 hours, cell viability, read-out: BCR/ABL T315I IC50
T2 construct: fused on or other part: P11274 (Breakpoint cluster region protein)
Procedure: as §1, §2, §3, §4

BaF3-TEL-HCK = target: T3, BaF3-TEL-HCK (Homo sapiens, UniProt P08631); assay: as above; conditions: 48 hours, cell viability, read-out: Tel-HCK IC50
T3 construct: fused on or other part: P41212 (Transcription factor ETV6)
Procedure: as §1, §2, §3, §4
(§5) Cell proliferation assays of compounds of the invention against TIE1, LYN, EML4-ALK, INSR and Hck were conducted using identical methods as described above for BCR/ABL, except that BaF3-TEL-TIE1, BaF3-TEL-LYN, BaF3-EML4-ALK, BaF3-TEL-INSR, and BaF3-TEL-HCK are used instead of BaF3-BCR/ABL (Table 3 and 4).

BaF3-EML4-ALK = target: T4, BaF3-EML4-ALK (Homo sapiens, UniProt Q9UM73); assay: as above; conditions: 48 hours, cell viability, read-out: EML4-ALK IC50
T4 construct: fused on or other part: Q9HC35 (Echinoderm microtubule-associated protein-like 4)
Procedure: as §1, §2, §3, §4, §5

BaF3-TEL-LYN = target: T5, BaF3-TEL-LYN (Homo sapiens, UniProt P07948); assay: as above; conditions: 48 hours, cell viability, read-out: tel-LYN IC50
T5 construct: fused on or other part: P41212 (Transcription factor ETV6)
Procedure: as §1, §2, §3, §4, §5

BaF3-TEL-INSR = target: T6, BaF3-TEL-INSR (Homo sapiens, UniProt P06213); assay: as above; conditions: 48 hours, cell viability, read-out: Tel-INSR IC50
T6 construct: fused on or other part: P41212 (Transcription factor ETV6)
Procedure: as §1, §2, §3, §4, §5

BaF3-TEL-TIE1 = target: T7, BaF3-TEL-TIE1 (Homo sapiens, UniProt P35590); assay: as above; conditions: 48 hours, cell viability, read-out: tel-TIE1 IC50
T7 construct: fused on or other part: P41212 (Transcription factor ETV6)
Procedure: as §1, §2, §3, §4, §5

BaF3-NRASD12 = assay: Oncogenic RAS dependent cell proliferation (CellTiter Glo); conditions: Mus musculus, BaF3-NRASD12 cells, 48 hours, read-out: NRas-BaF3 IC50
Procedure: (§6) The BaF/3 cell line transformed with oncogenic NRAS or KRAS (BaF/3-NRASD12 or BaF/3-KRASD12) and the parental BaF/3 cells were used to measure the abilities of compounds of the invention to suppress RAS transformation (Table 5). Cells were seeded at a density of 5000 cells/well into 96-well plates. […] The background control wells to which media with no cells added and the vehicle control wells were included on each plate in triplicate. Cell viability was determined using CellTiter Glo Assay (Promega) according to manufacture's instruction with a minor modification of diluting 1 part CellTiter Glo reagent to 4 parts phosphate buffered saline (PBS) before use. The luminescence value was read out by an Envision (PerkinElmer).

BaF3-KRASD12 = assay: as above; conditions: Mus musculus, BaF3-KRASD12 cells, 48 hours, read-out: KRas-BaF3 IC50
Procedure: as §6

Wt-BaF3 = assay: Parental Ba/F3 cell proliferation (CellTiter Glo); conditions: Mus musculus, parental BaF/3 cells, 48 hours
Procedure: as §2, §6

T3 sequence (P08631 whole entry, change not shown, the tested form may be a part): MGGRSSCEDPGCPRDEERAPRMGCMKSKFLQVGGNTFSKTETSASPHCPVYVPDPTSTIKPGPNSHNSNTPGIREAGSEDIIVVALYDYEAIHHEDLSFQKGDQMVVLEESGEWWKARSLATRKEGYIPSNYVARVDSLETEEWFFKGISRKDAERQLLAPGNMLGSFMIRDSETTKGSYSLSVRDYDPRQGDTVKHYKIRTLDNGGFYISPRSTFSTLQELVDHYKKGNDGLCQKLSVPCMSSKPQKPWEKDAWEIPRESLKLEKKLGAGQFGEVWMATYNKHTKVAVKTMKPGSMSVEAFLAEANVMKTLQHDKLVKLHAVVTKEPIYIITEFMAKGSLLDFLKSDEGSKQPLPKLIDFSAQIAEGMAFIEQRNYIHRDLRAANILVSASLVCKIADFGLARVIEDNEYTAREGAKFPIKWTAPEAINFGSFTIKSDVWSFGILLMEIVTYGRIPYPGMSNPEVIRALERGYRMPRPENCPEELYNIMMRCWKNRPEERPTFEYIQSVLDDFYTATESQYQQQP
T6 sequence (P06213 whole entry, stated change not applied, the tested form may be a part): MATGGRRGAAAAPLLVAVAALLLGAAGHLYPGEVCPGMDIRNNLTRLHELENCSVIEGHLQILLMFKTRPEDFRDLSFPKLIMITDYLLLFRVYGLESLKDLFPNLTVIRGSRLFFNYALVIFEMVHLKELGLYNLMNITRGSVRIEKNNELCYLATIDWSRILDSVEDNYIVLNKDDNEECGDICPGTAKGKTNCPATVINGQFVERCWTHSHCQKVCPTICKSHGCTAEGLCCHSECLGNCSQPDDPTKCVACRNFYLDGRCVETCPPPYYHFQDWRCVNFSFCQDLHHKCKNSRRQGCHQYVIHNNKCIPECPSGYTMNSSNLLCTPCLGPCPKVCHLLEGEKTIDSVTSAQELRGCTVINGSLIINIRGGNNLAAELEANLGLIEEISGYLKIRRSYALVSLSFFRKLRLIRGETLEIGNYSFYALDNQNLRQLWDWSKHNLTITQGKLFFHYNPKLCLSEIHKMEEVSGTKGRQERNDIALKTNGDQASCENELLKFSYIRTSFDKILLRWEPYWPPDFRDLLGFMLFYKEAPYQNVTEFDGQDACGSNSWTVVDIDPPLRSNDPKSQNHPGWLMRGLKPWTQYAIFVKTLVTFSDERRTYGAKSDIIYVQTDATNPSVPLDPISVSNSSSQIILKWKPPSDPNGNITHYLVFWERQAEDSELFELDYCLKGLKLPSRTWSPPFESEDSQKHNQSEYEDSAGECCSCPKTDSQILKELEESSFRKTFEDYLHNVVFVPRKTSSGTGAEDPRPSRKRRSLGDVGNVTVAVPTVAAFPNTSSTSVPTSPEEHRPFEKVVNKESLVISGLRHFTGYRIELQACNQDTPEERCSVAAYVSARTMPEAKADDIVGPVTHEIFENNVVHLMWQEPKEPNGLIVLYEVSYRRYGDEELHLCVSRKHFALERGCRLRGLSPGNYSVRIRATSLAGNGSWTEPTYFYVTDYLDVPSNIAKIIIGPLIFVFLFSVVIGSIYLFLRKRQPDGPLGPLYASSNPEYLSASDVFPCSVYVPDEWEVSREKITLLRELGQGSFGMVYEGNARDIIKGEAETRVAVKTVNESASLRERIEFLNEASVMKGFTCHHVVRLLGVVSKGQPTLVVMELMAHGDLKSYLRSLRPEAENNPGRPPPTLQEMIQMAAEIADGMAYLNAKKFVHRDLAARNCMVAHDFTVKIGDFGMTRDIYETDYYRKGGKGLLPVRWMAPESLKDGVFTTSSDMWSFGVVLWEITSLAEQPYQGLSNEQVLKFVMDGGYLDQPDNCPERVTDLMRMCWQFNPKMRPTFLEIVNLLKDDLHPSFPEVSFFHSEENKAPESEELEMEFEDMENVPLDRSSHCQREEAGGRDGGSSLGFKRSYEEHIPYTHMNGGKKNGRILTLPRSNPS
T4 sequence (Q9UM73 whole entry, change not shown, the tested form may be a part): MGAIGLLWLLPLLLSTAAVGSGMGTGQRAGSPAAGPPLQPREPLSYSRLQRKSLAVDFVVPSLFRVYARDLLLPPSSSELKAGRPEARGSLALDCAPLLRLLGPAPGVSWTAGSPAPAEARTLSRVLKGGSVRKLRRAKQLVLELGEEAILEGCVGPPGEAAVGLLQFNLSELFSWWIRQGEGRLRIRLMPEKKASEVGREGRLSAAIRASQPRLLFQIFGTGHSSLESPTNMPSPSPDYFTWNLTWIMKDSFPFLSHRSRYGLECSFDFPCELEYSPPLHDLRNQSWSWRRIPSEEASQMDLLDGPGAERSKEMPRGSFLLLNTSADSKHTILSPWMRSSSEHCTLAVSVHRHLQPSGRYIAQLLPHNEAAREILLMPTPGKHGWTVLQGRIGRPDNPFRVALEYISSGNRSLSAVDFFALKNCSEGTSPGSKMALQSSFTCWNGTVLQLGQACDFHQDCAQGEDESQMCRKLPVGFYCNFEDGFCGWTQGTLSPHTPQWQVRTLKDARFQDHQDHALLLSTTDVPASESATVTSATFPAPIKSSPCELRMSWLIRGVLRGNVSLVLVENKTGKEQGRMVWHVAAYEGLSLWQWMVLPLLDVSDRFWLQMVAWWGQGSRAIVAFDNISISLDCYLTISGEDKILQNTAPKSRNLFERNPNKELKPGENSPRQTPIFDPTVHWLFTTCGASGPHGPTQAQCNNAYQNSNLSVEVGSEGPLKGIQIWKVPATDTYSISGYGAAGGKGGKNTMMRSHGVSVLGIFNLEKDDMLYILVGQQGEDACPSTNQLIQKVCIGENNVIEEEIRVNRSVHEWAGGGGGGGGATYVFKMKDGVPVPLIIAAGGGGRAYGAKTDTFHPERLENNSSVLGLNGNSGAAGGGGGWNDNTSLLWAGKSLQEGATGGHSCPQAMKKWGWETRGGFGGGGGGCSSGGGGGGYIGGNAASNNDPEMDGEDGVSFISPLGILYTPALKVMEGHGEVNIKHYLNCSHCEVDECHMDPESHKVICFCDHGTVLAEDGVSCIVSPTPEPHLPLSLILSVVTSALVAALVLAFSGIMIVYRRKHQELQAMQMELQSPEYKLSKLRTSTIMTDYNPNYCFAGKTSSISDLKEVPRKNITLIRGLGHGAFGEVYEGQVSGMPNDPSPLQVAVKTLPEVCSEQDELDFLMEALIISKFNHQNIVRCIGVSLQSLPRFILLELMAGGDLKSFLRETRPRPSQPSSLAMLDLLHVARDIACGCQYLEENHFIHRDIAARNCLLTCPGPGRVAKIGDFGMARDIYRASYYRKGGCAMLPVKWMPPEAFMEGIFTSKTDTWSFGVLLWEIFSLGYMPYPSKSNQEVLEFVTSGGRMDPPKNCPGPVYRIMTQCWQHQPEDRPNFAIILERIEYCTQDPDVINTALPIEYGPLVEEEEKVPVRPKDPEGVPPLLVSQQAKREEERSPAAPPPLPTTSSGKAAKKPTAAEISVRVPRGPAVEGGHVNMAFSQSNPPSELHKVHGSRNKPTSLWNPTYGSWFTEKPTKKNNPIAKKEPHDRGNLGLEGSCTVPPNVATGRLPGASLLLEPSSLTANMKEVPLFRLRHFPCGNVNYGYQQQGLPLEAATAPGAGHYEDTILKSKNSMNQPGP
T7 sequence (P35590 whole entry, change not shown, the tested form may be a part): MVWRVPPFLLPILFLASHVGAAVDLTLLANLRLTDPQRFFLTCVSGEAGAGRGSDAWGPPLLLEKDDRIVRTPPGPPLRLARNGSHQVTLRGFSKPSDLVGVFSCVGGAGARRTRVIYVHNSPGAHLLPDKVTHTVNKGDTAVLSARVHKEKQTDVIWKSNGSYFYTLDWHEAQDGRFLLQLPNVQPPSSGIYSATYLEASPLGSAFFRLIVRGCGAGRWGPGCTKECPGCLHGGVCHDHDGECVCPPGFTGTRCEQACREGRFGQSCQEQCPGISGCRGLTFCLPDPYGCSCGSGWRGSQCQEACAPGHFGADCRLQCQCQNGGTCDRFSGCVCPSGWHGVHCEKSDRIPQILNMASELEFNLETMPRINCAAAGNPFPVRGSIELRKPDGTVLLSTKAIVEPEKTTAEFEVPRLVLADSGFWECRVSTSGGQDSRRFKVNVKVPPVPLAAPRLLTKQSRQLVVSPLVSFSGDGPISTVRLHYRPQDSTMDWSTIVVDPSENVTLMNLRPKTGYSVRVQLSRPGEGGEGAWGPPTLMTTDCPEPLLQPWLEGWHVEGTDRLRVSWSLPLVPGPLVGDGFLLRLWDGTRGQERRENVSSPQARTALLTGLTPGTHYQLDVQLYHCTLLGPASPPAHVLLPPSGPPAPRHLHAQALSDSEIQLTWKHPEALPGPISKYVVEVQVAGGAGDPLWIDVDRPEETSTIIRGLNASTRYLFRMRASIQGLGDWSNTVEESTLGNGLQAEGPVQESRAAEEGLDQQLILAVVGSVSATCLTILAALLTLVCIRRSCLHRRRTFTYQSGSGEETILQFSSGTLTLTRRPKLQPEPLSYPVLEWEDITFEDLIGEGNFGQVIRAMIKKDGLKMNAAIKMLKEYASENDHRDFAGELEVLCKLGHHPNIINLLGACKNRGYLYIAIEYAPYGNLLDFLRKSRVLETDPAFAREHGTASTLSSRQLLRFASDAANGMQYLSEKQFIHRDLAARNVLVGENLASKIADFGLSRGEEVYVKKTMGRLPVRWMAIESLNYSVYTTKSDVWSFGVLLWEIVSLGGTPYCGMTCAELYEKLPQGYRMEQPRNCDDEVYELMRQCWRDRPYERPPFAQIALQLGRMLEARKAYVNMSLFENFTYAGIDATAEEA

| IC50 (BaF3-NRASD12) | IC50 (BaF3-KRASD12) | SMILES | GI50 (BaF3-BCR/ABL) | GI50 (BaF3-BCR/ABL-T315I) | GI50 (BaF3-TEL-HCK) | GI50 (BaF3-EML4-ALK) | GI50 (BaF3-TEL-LYN) | GI50 (BaF3-TEL-INSR) | GI50 (BaF3-TEL-TIE1) | IC50 (Wt-BaF3) |
| --- | --- | --- | --- | --- | --- | --- | --- | --- | --- | --- |
| 4410 nM | 4310 nM | COc1cc(C(=O)N2CCN(C)CC2)ccc1Nc1ncc2c(n1)N(C)CN(c1cc(NC(=O)c3cccc(C(F)(F)F)c3)ccc1C)C2 [IA-16, N-(3-(7-((2-methoxy-4-(4-methylpiperazine-1-carbonyl)phenyl)amino)-1-methyl-1,4-dihydropyrimido[4,5-d]pyrimidin-3(2H)-yl)-4-methylphenyl)-3-(trifluoromethyl)benzamide] | 1710 nM | 4370 nM | 2880 nM | 1540 nM | 2000 nM | 3960 nM | 1580 nM | 4420 nM |
| 1500 nM | 2110 nM | CCN1CN(c2cc(NC(=O)c3cccc(C(F)(F)F)c3)ccc2C)Cc2cnc(Nc3ccc(C)nc3)nc21 [IB-1, N-(3-(1-ethyl-7-((6-methylpyridin-3-yl)amino)-1,4-dihydropyrimido[4,5-d]pyrimidin-3(2H)-yl)-4-methylphenyl)-3-(trifluoromethyl)benzamide] | 5.96 nM | 881 nM | 327 nM | 2640 nM | 1260 nM | 3230 nM | 1290 nM | 4840 nM |
| 1400 nM | 1780 nM | Cc1ccc(Nc2ncc3c(n2)N(C2CC2)CN(c2cc(NC(=O)c4cccc(C(F)(F)F)c4)ccc2C)C3)cn1 [IB-2, N-(3-(1-cyclopropyl-7-((6-methylpyridin-3-yl)amino)-1,4-dihydropyrimido[4,5-d]pyrimidin-3(2H)-yl)-4-methylphenyl)-3-(trifluoromethyl)benzamide] | 53.8 nM | 2900 nM | 2090 nM | 3130 nM | 1200 nM | 2160 nM | 1090 nM | 6030 nM |
